Laboratory results as given in publication PMC8541575, “Optimization and Development of Selective Histone Deacetylase Inhibitor (MPT0B291)-Loaded Albumin Nanoparticles for Anticancer Therapy” (Pharmaceutics, 2021).

Experiments:
[1] = In vitro drug release by dialysis bag; type: physicochemical; details: 0.25 mg/mL in propylene glycol, pH 7.4 phosphate buffer with 1% Tween 80, 37 °C
Protocol: The dialysis bag was subsequently placed into 25 mL of release medium (PBS) containing 1% v/v Tween 80. The temperature was maintained at 37.0 ± 0.5 °C, and the medium was stirred at a speed of 100 rpm. MPT0B291 which had been dissolved in propylene glycol (free MPT0B291; 0.25 mg/mL) was used as a control and was treated in the same manner. During a period of 48 h, the surrounding environment was maintained by replacing 2 mL of the release medium with an equal volume of fresh medium at regular intervals. The extraction solution was solubilized in 500 μL of acetonitrile and assayed by HPLC.

MIA PaCa-2 cells = test: Cell viability (MTT) assay; type: cell-based; details: Homo sapiens, 24 h of exposure, read-out: 50% inhibitory concentration (IC50)
Protocol: Briefly, MIA PaCa-2 cells were seeded (5 × 10^3 cells/well) in 96-well culture plates. After 24 h of incubation in a humidified incubator at 37 °C with 5% CO2, the medium of adherent cells was replaced with serum-free culture medium and incubated with 200 μL of serial dilutions of HSA-NPs (0.01~1000 μg/mL) and MPT0B291-HSAX NPs ([…]). After another 24 h, 100 µL of MTT (500 μg/mL in PBS, pH 7.4) was added and incubated at 37 °C for 2 h. The medium was then removed, and 100 µL of DMSO was added to each well to dissolve the crystals. The optical density (OD) was measured at 540 nm using a microplate reader (Cytation™ 3 Cell Imaging Multi-Mode Reader, BioTek, Winooski, VT, USA). The cell survival rate was calculated as follows:(3) Cell survival rate (%)=Absorbance value of test solution group /Absorbance value of blank solution group ×100%

[2] = test system: healthy Balb/c female mice; test: Maximum tolerated dose, single i.v. dose; type: in vivo
Protocol: The single-dose study was conducted using healthy female mice with four animals per group.

[3] = In vivo pharmacokinetic study after intravenous administration; details: male, Sprague-Dawley, rat, plasma, rats, i.v., 5 mg/kg body weight, mean ± SD (n = 4)
Protocol: Male Sprague-Dawley rats (250 ± 15 g) were divided into two groups (with four rats per group). […] All collected blood samples were centrifuged at 4000 rpm and 4 °C for 10 min, and supernatant plasma samples were obtained and frozen at -80 °C for further analysis. Quantitative analysis of MPT0B291 in rat plasma by an ultra-precision liquid chromatographic tandem mass spectroscopic (UPLC-MS/MS) method was performed using an Agilent 1290 Infinity II LC System (Agilent, Wilmington, DE, USA) coupled with an Agilent 6470 triple quadrupole LC/MS system (Agilent Technologies, Santa Clara, CA, USA). Optimized chromatographic separation of MPT0B291 was conducted with an ACQUITY UPLC BEH C18 column (1.7 μm, 2.1 × 100 mm; Waters, Milford, MA, USA) at an oven temperature of 40 °C. The mobile phase was 0.1% (v/v) formic acid in water (mobile phase A) and acetonitrile containing 0.1% (v/v) formic acid (mobile phase B) with gradient elution at a flow rate of 0.3 mL/min. All analytical procedures were evaluated with positive electrospray ionization (ESI). The LC gradient was programmed in linear steps as follows: 0~0.5 min, 5% mobile phase B (v/v); 0.5~1 min, 5% mobile phase B to 100% mobile phase B (v/v); 1~2.8 min, 100% mobile phase B; 2.8~3 min, 100% mobile phase B to 5% mobile phase B (v/v); and 3~4 min, 5% mobile phase B (v/v). Quantification was achieved using the multiple reaction monitoring (MRM) mode at m/z 344.1 → 91.0 for MPT0B291. The following PK parameters were determined: the area under the concentration-time curve (AUC), maximum peak concentration (Cmax), time of maximum peak concentration (Tmax), and mean residence time (MRT). These parameters were determined by DAS software vers. 2.0. All data are presented as mean ± standard deviation (SD).

For `O=C(/C=C/c1cccc(S(=O)(=O)n2ccc3cccnc32)c1)NO` [MPT0B291], the “Drug released within 1 h” value [1] was 60%, the “Drug released within 8 h” value [1] was roughly 100% and the IC50 (MIA PaCa-2 cells) was 4.71 µM. For the same compound, the “Mortality after single i.v. dose of 150 mg/kg BW” value ([2]; n = 4) was “one mouse was found dead after 24 h and another one also died on the following day”, the “Maximum tolerated dose (MTD)” value ([2]; single dose, i.v. route) was “approximately 75 mg/kg BW” and the AUC(0-inf) [3] was 293 ± 39.2 ng·h/mL. For the same compound, the AUC(0-t) ([3]; read-out: AUC0–24h) was 291 ± 39.7 ng·h/mL, the clearance ([3]; read-out: CL (clearance)) was 288 ± 36.7 mL/min/kg and the MRT ([3]; read-out: MRT (mean residence time)) was 1.86 ± 0.66 h. The Vd ([3]; read-out: Vss (volume of distribution at steady state)) was 32.6 ± 12.3 L/kg and the half-life ([3]; read-out: t1/2 (elimination half-life) (converted)) was 2.07 ± 0.64 h.
